The source of these data is PubChem BioAssay AID504542 (Sanford-Burnham Center for Chemical Genomics, 2011).

The source made the active and inactive calls. How the calls were made is not given here. Some results are limits rather than exact numbers.

For the assay, the system named is S. cerevisiae TIM10 counterscreen strain, luminescence. The experiment in a line: TIM10 counterscreen strain luminescent signal reducers – S. cerevisiae, uHTS hits, counter-screen for tim10-1 inhibitor project, dose response (AID 504542).
Consider `O=c1oc2ccccc2c(O)c1/C=C1\C=Nc2ccccc21`, for which the IC50 (usually the concentration that gives 50% inhibition) was 6.1 µM. As for `COc1ccc(C(=O)O/N=C(\N)c2ccc(Br)cc2)cc1`, the concentration for half-maximal inhibition (IC50) was 7.29 µM.

Consider `Cc1onc(-c2ccc3c(c2)OCO3)c1-c1ccc2[nH]ccc2c1`, for which the IC50 was 3.49 µM. For `Cc1cccc(NC(=S)N/N=C2/CCCCc3ccccc32)c1`, the half-maximal inhibitory concentration (IC50) was 2.28 µM. For `CC1(CC(=O)N/N=C/c2ccc(OCc3ccc(Cl)cc3Cl)cc2)OCCCO1` the value was 2.94 µM. For `Fc1ccccc1CNC(=S)Nc1cccc(C(F)(F)F)c1`, the IC50 was 8.28 µM.

Regarding `CCCCNC(=S)N=Nc1c(O)[nH]c2ccccc12`, the IC50 was 3.19 µM.

On to `COc1ccc(/C(N)=N/OC(=O)c2ccc3c(c2)OCO3)cc1`, for which the half-inhibitory concentration (IC50) was 4.94 µM.

Turning to `N/C(=N\OC(=O)CCC1CCCC1)c1ccccc1`, the IC50 was 16.8 µM. With `CC(C)C(=O)N1CCN(c2ccccc2NC(=O)c2ccc([N+](=O)[O-])o2)CC1`, the IC50 is 1.82 µM. For `COc1ccccc1N1C(=O)CC(Sc2n[nH]c(-c3cccc(C)c3)n2)C1=O` (stereo unspecified) the value was 3.62 µM. For `Cc1cc(C)cc(N2C(=O)CC(Sc3nnnn3-c3ccccc3)C2=O)c1` (stereo unspecified) the value was 0.69 µM; for `Cc1cccc(NC(=O)c2ccc([N+](=O)[O-])s2)n1`, 1.39 µM. On to `COc1ccc(C(=O)O/N=C(\N)Cc2ccc(Cl)c(Cl)c2)cc1OC`, for which the IC50 was 0.8 µM. For the compound `COc1ccc(C(=O)Nc2ccc(-n3nncc3C(C)(C)C)cc2)cc1`, the IC50 is 6.59 µM. On to `COc1ccc2sc(N(CCCN(C)C)C(=O)c3ccc(S(=O)(=O)N4CCCc5ccccc54)cc3)nc2c1`, for which the half-inhibitory concentration (IC50) was 8.76 µM. For `O=C(/C=C/c1ccc2c(c1)OCCCO2)c1ccccc1O` the value was 4.68 µM; for `CC(C)(C)OC(=O)N[C@@H](Cc1ccccc1)c1nnc(S(=O)(=O)Cc2cccc(F)c2)o1`, 1.19 µM; for `NC(=NCCCCCCN=C(N)/N=C(\N)Nc1ccc(Cl)cc1)/N=C(\N)Nc1ccc(Cl)cc1`, > 100 µM (inactive). For `CCCOc1ccc(N2C(=O)CC(N3CCC(O)(c4cccc(C(F)(F)F)c4)CC3)C2=O)cc1` (stereo unspecified) the value was 3.95 µM. For `CC1=C/C(=N\OS(=O)(=O)c2ccccc2)C=CC1=O` the value was 0.26 µM. For the compound `CNC(=O)c1nnsc1S(=O)(=O)c1ccc(Cl)cc1`, the IC50 was 12.9 µM.

In the case of `CCCOc1ccc(CN(CCC#N)C(=S)NC(=O)c2ccccc2)cc1`, the IC50 is 10.2 µM.

Regarding `CCOc1ccccc1NC(=O)/C=C/C(N)=O`, the concentration for half-maximal inhibition (IC50) is 3.32 µM. On to `N/C(=N\OC(=O)CCCc1ccccc1)c1ccccc1Cl`, for which the IC50 is 7.22 µM. In the case of `Nc1ccccc1C(=O)/C=C/c1ccc2c(c1)OCO2`, the IC50 is 5.88 µM. For `O=C(c1cc(COc2ccc(F)cc2Cl)on1)N1CCN(c2cnccn2)CC1` the value was 3.98 µM; for `C[C@@H]1CC=C[C@H]2[C@H]1C(=O)N(Cc1ccccc1)[C@H]2c1ccc(-c2ccoc2)cc1F`, 7.07 µM. For `CN(C)CCCN(C(=O)c1cc2cc([N+](=O)[O-])ccc2s1)c1nc2cc3c(cc2s1)OCCO3` the value was 10.8 µM. On to `CC(C)c1nnc(NC(=O)CCS(=O)(=O)c2nc(-c3cccs3)cc(C(F)(F)F)n2)s1`, for which the IC50 was 4.84 µM. Regarding `COc1ccc(NC2CCN(C3CC(=O)N(c4ccc(F)c(Cl)c4)C3=O)CC2)cc1` (stereo unspecified), the 50% inhibitory concentration (IC50) was 2.91 µM. For `O=C(NC(=S)Nc1ccccc1N1CCCC1)c1ccc([N+](=O)[O-])cc1` the value was 8.53 µM. For `Cc1ccc(NC(=S)/N=C(\N)Nc2nc(C)c3cc(C)ccc3n2)c(C)c1`, the IC50 was 12.1 µM.

`COc1cc(N=c2ssnc2Cl)c(OC)cc1Cl`: the half-inhibitory concentration (IC50) is 3.15 µM. With `CC(C)NC(=S)N/N=C1\CCCCc2ccccc21`, the IC50 is 3.66 µM. On to `O=C(NNC(=S)Nc1ccc(Cl)cc1)c1ccccc1OC(F)F`, for which the IC50 was 4.44 µM.

For `O=C(OCn1ncc(Br)c(Br)c1=O)c1ccc(F)cc1`, the IC50 was 1.15 µM.

For the compound `Clc1ccccc1OCc1nnc(-c2ccccc2Br)o1`, the concentration for half-maximal inhibition (IC50) is 16.6 µM.

On to `Cc1cc(C)c(CSc2ncc(-c3ccc([N+](=O)[O-])cc3)[nH]2)c(C)c1`, for which the half-maximal inhibitory concentration (IC50) was 10.1 µM. For `Cn1c(NCCCO)nc2c(c1=O)C1(CCCCC1)Cc1ccccc1-2` the value was 6.86 µM. For `CCCCCCC(=O)N(O)C1CC(=O)N(c2ccc(C)cc2)C1=O` (stereo unspecified) the value was 4.38 µM.
